The values below come from patent US10889569B2, “Condensed ring group azacyclobutyl triazole derivative, preparation method therefor and use thereof in medicine” (Jiangsu Hengrui Medicine Co., Ltd., priority 2016, dated 2021).

Molecules are shown by their SMILES.

What all share (assay type): cell-based
Experiment [1] addresses human V1bR (Homo sapiens, UniProt P47901). The experiment can be described thus: Inhibition activity on human V1bR (Fluo-4 calcium assay, HEK293/human V1bR pool cells). Conditions: vasopressin 3 nM. On the procedure:
The inhibition effect of the compounds of the present invention on the activity of human V1bR protein expressed in HEK293/human V1bR cells was determined by the following experimental method:
The pcDNA3.1-V1bR plasmid was transferred into HEK293 cells with the Lipofectamine® 3000 transfection reagent; G418 was added on the next day, and the HEK293/human V1bR pool cell lines were obtained.
HEK293/human V1bR pool cells were inoculated in a 96-well plate with an inoculation density of 25,000 cells/well one day in advance. On the next day, a loading buffer containing Fluo-4 dye was formulated using the reagents in the Fluo-4 NW calcium assay kit, and the culture medium was then removed; 100 μl of the loading buffer containing Fluo-4 dye were added to each well, and the plate was incubated at 37° C. for 30 minutes. After that, the plate was moved to room temperature and equilibrated for 10 minutes. The compounds were formulated into 10^6, 10^5, 10^4, 10^3, 10^2 and 10^1 nM. 1 μl of the compounds in each concentration was added to each well, and the plate was incubated at room temperature for 10 minutes. 50 μl of vasopressin polypeptide (3 nM) were automatically added by the machine, and the values were immediately detected at 494/516 nM by the flexstation 3 microplate reader. IC50 values of the compounds were calculated by Graphpad prism software using fluorescence signals corresponding to different concentrations.
The inhibition activity of the compounds of the present invention on human V1bR was determined by the above test, and the obtained IC50 values are shown in Table 3.

For experiment [2], the target named is human V2R (Homo sapiens (Human), UniProt P30518). The experiment can be described thus: Inhibition activity on human V2R (cAMP HTRF assay, HEK293/human V2R pool cells). The following applies: vasopressin. On the procedure:
The inhibition effect of the compounds of the present invention on the activity of human V2R protein expressed in HEK293/human V2R cells was determined by the following experimental method:
The pcDNA3.1-V2R plasmid was transferred into HEK293 cells with the Lipofectamine® 3000 transfection reagent; G418 was added on the next day, and the HEK293/human V2R pool cell lines were obtained.
HEK293/human V2R pool cells were dissociated with the cell dissociation solution (enzyme-free), thereby dissociating the cells from the cell culture dish into individual cells. Then the cell solution was blown well, and centrifuged to remove the supernatant. The cells were resuspended in the test buffer 1 (1×HBSS+20 mM HEPES+0.1% BSA) and counted. The cell density was adjusted to 1250 cells/5 μl, i.e., 2.5*10^5/ml.
The compounds were formulated into a series of concentrations of 20 mM, 6.67 mM, 2.22 mM, 0.74 mM, 0.25 mM, 0.08 mM, 27.4 μM, 9.14 μM, 3.05 μM, 1.02 μM, 0.34 μM and 0 μM (DMSO) with pure DMSO. The compounds were then diluted into a 4-fold working concentration solution with the test buffer 2 (test buffer 1+1 mM IBMX).
Agonist: 460 μM vasopressin was used as the mother liquor, which was formulated at 2 μM with DMSO, and then diluted to 0.5 nM with the test buffer 2.
Standards: The first point was 20 μl of a stock solution (2848 nM), which was diluted successively to a total of eleven concentrations in a 4-fold concentration gradient with the test buffer 1 from the second point.
1. The well-mixed cells were added to a 384-well plate (5 μl/well) without changing the tip.
2. The test compounds and positive compound formulated were added (2.5 μl/well), and the tips were changed.
3. The plate was centrifuged at 1000 rpm for 1 min, shaken for 30 sec to mix well, and incubated at room temperature for 30 min.
4. The standard curve wells were added with the test buffer 2 (5 μl/well).
5. The formulated agonist was added (2.5 μl/well), and the tips were changed; the plate was centrifuged at 1000 rpm for 1 min, shaken for 30 sec to mix well, and incubated at room temperature for 30 min.
6. cAMP-d2 (a component in the cAMP dynamic 2 kit) and Anti-cAMP-Eu-Cryptate (a component in the cAMP dynamic 2 kit) were formulated in the dark, which were then mixed well with cAMP lysate (a component in the cAMP dynamic 2 kit) in a ratio of 1:4. Each well was added with the formulated cAMP-d2 solution (5 μl/well), followed by addition of Anti-cAMP-Eu-Cryptate (5 μl/well). The plate was shaken for 30 sec to mix well, and incubated in the dark at room temperature for 1 h.
The HTRF Signals were Read by the PheraStar Multi-Function Microplate Reader.
The data in this test was processed using the data processing software Graphpad Prism.
The inhibition activity of the compounds of the present invention on human V2R was determined by the above test, and the IC50 values obtained are shown in Table 4.
In general terms: In TR-FRET formats the signal depends on donor and acceptor labels being close together.

Experiment [3] concerns the target human OTR (Homo sapiens, UniProt P30559). The experiment can be described thus: Inhibition activity on human OTR (Fluo-4 calcium assay, HEK293/human OTR stably transfected cells). The following applies: oxytocin 3 nM. The procedure, abridged:
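HEK293 cells stably expressing human OTR, loaded with Fluo-4 for 30 min at 37 °C, were preincubated 10 min at room temperature with compound (stocks 10^1–10^6 nM). Oxytocin (3 nM as added) then triggered calcium signal, read immediately at 494/516; IC50 fitted from fluorescence versus concentration.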

human V2R, sequence (P30518 whole entry): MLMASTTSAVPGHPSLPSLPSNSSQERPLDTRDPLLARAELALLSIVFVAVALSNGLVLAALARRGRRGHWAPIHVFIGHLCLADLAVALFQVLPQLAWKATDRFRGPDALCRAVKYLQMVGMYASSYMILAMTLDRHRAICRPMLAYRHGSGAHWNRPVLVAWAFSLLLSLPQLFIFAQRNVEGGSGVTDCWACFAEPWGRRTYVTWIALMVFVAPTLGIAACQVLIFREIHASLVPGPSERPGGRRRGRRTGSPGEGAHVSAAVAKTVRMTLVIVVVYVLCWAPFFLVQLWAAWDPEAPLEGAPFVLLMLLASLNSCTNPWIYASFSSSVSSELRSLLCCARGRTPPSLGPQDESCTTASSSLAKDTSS

For the compound `COCc1nnc(N2CC(c3cccc4cc(F)ccc34)C2)n1-c1ccc(OC)nc1` [Example 2, 5-(3-(3-(6-Fluoronaphthalen-1-yl)azetidin-1-yl)-5-(methoxymethyl)-4H-1,2,4-triazol-4-yl)-2-methoxypyridine], the IC50 (as a rule, the concentration that gives 50% inhibition) turned out to be 26 µM in experiment [1], 4.9 µM in experiment [2] and 2 nM in experiment [3].
`COCc1nnc(N2CC(n3cc(C)c4cc(F)ccc43)C2)n1-c1ccc(OC)nc1` [Example 17, 5-Fluoro-1-(1-(5-(methoxymethyl)-4-(6-methoxypyridin-3-yl)-4H-1,2,4-triazol-3-yl)azetidin-3-yl)-3-methyl-1H-indole]: the 50% inhibitory concentration (IC50) in experiment [1] came to 19.8 µM; in experiment [2], 10.9 µM; in experiment [3] it was 64 nM.
